Assay results reported in PubChem BioAssay AID1996.
≈ marks a conversion by molar mass, not a printed value.

details: buffer; pH 7.4; 200.0 µM

SMILES	solubility kinetic
O=C(Cc1ccc(Br)cc1)Nc1nc2ccccc2[nH]1	2.4 µg/mL (≈ 7.27 µM)
COc1ccc(CNC(=O)c2cc3cc(OC)ccc3oc2=O)cc1	< 0.7 µg/mL
COc1ccccc1N1CC(C(=O)Nc2ccc(C)c(S(=O)(=O)N3CCOCC3)c2)CC1=O (stereo not drawn)	> 71 µg/mL
COc1ccc(OC)c(CNc2ccc3c(c2)nc(C)n3C)c1	37.1 µg/mL (≈ 119 µM)
Cc1c(Cc2ccc3c(c2)OCO3)sc(NC(=O)C2CC2)c1C(N)=O	1.8 µg/mL (≈ 5.02 µM)
CCn1c(=O)c(C(=O)NCc2ccccc2OC)c(O)c2ccccc21	0.7 µg/mL (≈ 1.99 µM)
Cc1ccc(NC(=O)c2ccc(Cl)c(S(=O)(=O)NCc3ccco3)c2)c(O)c1	7.3 µg/mL (≈ 17.3 µM)
CO/N=C1\CCn2c1c(C)c1ccccc12	0.8 µg/mL (≈ 3.73 µM)
CCOC(=O)c1cnc(SCC(=O)NNC(=O)c2ccco2)nc1N	> 54.8 µg/mL
Cc1cc(=O)c2c([nH]1)c(C)cc1[nH]c(C)c(C)c12	> 36 µg/mL
Cc1cc(NC(=O)CSCC(=O)N2CCN(c3ccccc3)CC2)no1	> 56.2 µg/mL
O=C(CCC(=O)c1ccc(Cl)cc1)NCc1ccccc1	14.3 µg/mL (≈ 47.4 µM)
CCc1c(C)nc(SCC(=O)N2CCCCC2)[nH]c1=O	> 44.3 µg/mL
COc1ccc2[nH]cc(CCNC(=O)Nc3ccccc3C)c2c1	10.4 µg/mL (≈ 32.2 µM)
Cc1ccccc1C(=O)NCCNC(=O)c1cnccn1	35.7 µg/mL (≈ 126 µM)
O=C(O)c1cc(N2C(=O)CCC2=O)ccc1Cl	> 38 µg/mL
FC(F)Oc1ccc(NC(=S)NCc2cccnc2)cc1	> 46.4 µg/mL
Cc1c(C(=O)NCc2ccco2)oc2ccccc12	6.3 µg/mL (≈ 24.7 µM)
Cc1cnc(C(=O)OCC(=O)c2cccc3ccccc23)cn1	36.1 µg/mL (≈ 118 µM)
Cn1cc(-c2ccccc2C(N)=O)c(=O)c2cc(Cl)ccc21	46.3 µg/mL (≈ 148 µM)
O=C(CSc1ccccc1)NCCc1ccccc1	39.4 µg/mL (≈ 145 µM)
CCOc1ccc(C2NC(=O)c3ccccc3O2)cc1OC (stereo not drawn)	3.3 µg/mL (≈ 11 µM)
O=C1/C(=C/c2ccccn2)SC(=S)N1c1cccc(O)c1	0.4 µg/mL (≈ 1.27 µM)
Cc1nc([N+](=O)[O-])cn1Cc1cccc2ccccc12	2.5 µg/mL (≈ 9.35 µM)

SMILES	solubility kinetic
O=C(Cc1ccc([N+](=O)[O-])cc1)Nc1ccc2c(c1)CCC2	0.6 µg/mL (≈ 2.02 µM)
COc1ccccc1CNC(=O)CCc1ccccc1	> 40.4 µg/mL
COC(=O)c1ccc(C(=O)OC)c(NC(=S)N2CCCC(CO)C2)c1 (stereo not drawn)	50.9 µg/mL (≈ 139 µM)
O=C1CSC(c2ccccc2)N1c1ccccc1F (stereo not drawn)	40.3 µg/mL (≈ 147 µM)
Cc1cnc(C(=O)OCC(=O)Nc2ccc(C)c(S(=O)(=O)N3CCOCC3)c2)cn1	> 65.2 µg/mL
Brc1cccc(C=Nc2cccc3ncccc23)c1	12.2 µg/mL (≈ 39.2 µM)
O=C(COC(=O)C12CC3CC(CC(C3)C1)C2)Nc1ccc2[nH]c(=O)[nH]c2c1	1.3 µg/mL (≈ 3.52 µM)
O=C(NCC(O)c1ccccc1)Nc1cccs1 (stereo not drawn)	> 39.3 µg/mL
Cn1c(=S)[nH]c2c(c1=O)C(C)(C)Cc1ccccc1-2	3 µg/mL (≈ 11 µM)
COC(=O)c1cccc(NC(=O)CC2C(=O)NCCN2C(=O)Nc2cc(C)cc(C)c2)c1 (stereo not drawn)	13.1 µg/mL (≈ 29.9 µM)
Cc1ccc(CNC(=O)c2ccc[nH]2)cc1	> 32.1 µg/mL
CC1=CCC(C(=O)O)C(C(=O)NC2CCCCC2)C1 (stereo not drawn)	> 39.8 µg/mL
CN(C(=O)c1ccc2nc(N)sc2c1)c1ccccc1	40.8 µg/mL (≈ 144 µM)
CC(=O)c1ccc(NC(=O)C(C)Nc2ccc(Cl)cc2)cc1 (stereo not drawn)	40.9 µg/mL (≈ 129 µM)
CCSc1nc(-c2cccs2)nc2ccccc12	0.3 µg/mL (≈ 1.1 µM)
Cc1cccc(OC(=O)c2cccnc2)c1	12.6 µg/mL (≈ 59.1 µM)
COc1cc(NC(=O)CN2C(=O)CN(C)C2=O)c(C)cc1[N+](=O)[O-]	> 50.4 µg/mL
CC(=O)c1ccc(NC(=O)[C@@H]2CCCN2C(=O)OC(C)(C)C)cc1	> 49.9 µg/mL
CCc1ccc(NC2=CC(=O)CC(C)(C)C2)cc1	16.1 µg/mL (≈ 66.2 µM)
CN(C)CCCNc1nc(N)c([N+](=O)[O-])c(NCCO)n1	39 µg/mL (≈ 130 µM)
Cc1cc(Nc2ccc(Br)cc2)nc2ccccc12	< 0.3 µg/mL
COc1ccc(OC)c(C2=NOC(C(=O)NCc3cccnc3)C2)c1 (stereo not drawn)	47.8 µg/mL (≈ 140 µM)
O=C(Cc1ccccc1)Nc1ccc2c(c1)OC1(CCCC1)O2	16.4 µg/mL (≈ 53 µM)
O=C(Cc1ccc(Cl)cc1)N1CCN(c2ccc(F)cc2)CC1	19 µg/mL (≈ 57.1 µM)

SMILES	solubility kinetic
CCc1ccc(NC(=S)Nc2cccc3cnccc23)cc1	11.6 µg/mL (≈ 37.7 µM)
Cc1cccnc1NC(=O)NC(=O)c1ccc(C(C)(C)C)s1	9.1 µg/mL (≈ 28.7 µM)
O=Cc1ccccc1OCCN1CCCC1=O	33.8 µg/mL (≈ 145 µM)
COCCCn1c(=O)c2ccccc2n2c(=S)[nH]nc12	> 43.6 µg/mL
CCc1ccc(OCC(=O)Nc2ccc3oc(=O)ccc3c2)cc1	1.5 µg/mL (≈ 4.64 µM)
O=C(O)c1cc([N+](=O)[O-])c(NCCC2=CCCCC2)c([N+](=O)[O-])c1	> 50.3 µg/mL
O=C(NCc1ccccc1F)C1CCCN1C(=O)Nc1cccc(F)c1 (stereo not drawn)	> 53.9 µg/mL
Nc1ccc(C(=O)Nc2ccccc2N)cc1	> 34.1 µg/mL
COc1ccc(C(=O)NCC(=O)OCC(=O)NC2CCCCCC2)cc1OC	> 58.9 µg/mL
O=[N+]([O-])c1ccc(CSc2ccccn2)cc1	15.2 µg/mL (≈ 61.7 µM)
O=C1NC(=Nc2ccccc2Cl)S/C1=C\c1cccc([N+](=O)[O-])c1	4.2 µg/mL (≈ 11.7 µM)
CCN1C(=O)C(=Cc2cc(C)n(C3CC3)c2C)C(=O)N(CC)C1=S	2.8 µg/mL (≈ 8.1 µM)
CCCOc1ccc(/C=C2\SC(N)=NC2=O)cc1OC	2.5 µg/mL (≈ 8.55 µM)
COc1nc(SCC(=O)Nc2ccccc2Cl)nc(N(C)C)n1	20.4 µg/mL (≈ 57.7 µM)
CCS(=O)(=O)c1ccc(O)c(NC(=O)Nc2ccc(C(C)(C)C)cc2)c1	0.8 µg/mL (≈ 2.12 µM)
O=C(Nc1ccc(Oc2cccc(C(F)(F)F)c2)nc1)c1ccco1	1.2 µg/mL (≈ 3.45 µM)
COc1ccccc1NC(=O)c1ccc(NC(=O)COC(=O)c2cccnc2Cl)cc1	7.4 µg/mL (≈ 16.8 µM)
COc1ccc(N2C(=O)c3ccccc3NC2(C)C)cc1	8.3 µg/mL (≈ 29.4 µM)
COc1ccccc1NS(=O)(=O)c1cc(NC(=O)c2cccnc2)ccc1N1CCCCC1	1.3 µg/mL (≈ 2.79 µM)
S=C1NCN(CCc2ccccc2)CN1	> 33.2 µg/mL
CCCCNC(=O)CN1C(=O)NC2(CCOc3ccccc32)C1=O (stereo not drawn)	> 49.7 µg/mL
O=C(Cn1cnc2c(oc3ccccc32)c1=O)N1CCCC1	> 44.6 µg/mL
CC1CCN(C(=O)CSc2nc(C3CC3)nc3ccccc23)CC1	> 51.2 µg/mL
O=C(Nc1cccc(Cl)c1)Nc1cccc(C(=O)O)c1	> 43.6 µg/mL

SMILES	solubility kinetic
COc1ccccc1CNC(=O)c1oc2ccccc2c1C	9.8 µg/mL (≈ 33.2 µM)
Cn1c(Nc2ccc(Cl)cc2)cc(=O)n(C)c1=O	> 39.9 µg/mL
Cc1onc(-c2ccccc2)c1C(=O)NCC(O)c1ccccc1 (stereo not drawn)	> 48.4 µg/mL
COc1ccc(/C=C2\N=C(C)OC2=O)cc1[N+](=O)[O-]	25.7 µg/mL (≈ 98 µM)
COc1ccc(-c2csc3ncnc(NCCO)c23)cc1	> 45.2 µg/mL
COc1cccc(CNc2ncc(-c3ccccc3)n2C)c1	32.9 µg/mL (≈ 112 µM)
CCOC(=O)/C=C/C(=O)OCC(=O)Nc1cccc(Br)c1	13.8 µg/mL (≈ 38.7 µM)
Cl.N=C1CCCN1c1ccccc1O	30.6 µg/mL
N#CC(C(=S)Nc1ccccc1)c1nc2ccccc2[nH]1 (stereo not drawn)	0.9 µg/mL (≈ 3.08 µM)
COc1ccc(-c2csc(NC(=O)c3ccc(C(C)(C)C)cc3)c2C(=O)O)cc1	> 61.4 µg/mL
COc1cc2ccccc2cc1C(=O)N1CCCC1	> 38.3 µg/mL
CC(C)[C@H](NS(=O)(=O)c1ccccc1)C(=O)OCC(=O)NCc1ccc2c(c1)OCO2	> 67.3 µg/mL
Cc1ccccc1OCC(=O)Nc1ccccc1NC(=O)c1ccco1	36.7 µg/mL (≈ 105 µM)
CCOCc1[nH]c(=S)[nH]c(=O)c1Cc1ccc(OC(C)C)cc1	> 50.2 µg/mL
COc1ccc2cc(C#N)c(SCC(=O)Nc3nonc3C)nc2c1	3.4 µg/mL (≈ 9.57 µM)
CCOc1ncccc1C(=O)Nc1c(C)n(C)n(-c2ccccc2)c1=O	> 52.9 µg/mL
O=C(O)CCSC1CC(=O)N(c2ccccc2)C1=O (stereo not drawn)	> 41.9 µg/mL
CCC1CCCCN1Cc1c(O)ccc2c(=O)c(-c3ccccc3)coc12 (stereo not drawn)	50.1 µg/mL (≈ 138 µM)
Cc1c(C(=O)Nc2cccc(S(=O)(=O)N3CCOCC3)c2)oc2ccccc12	2.3 µg/mL (≈ 5.74 µM)
COc1ccc(-c2ccc(S(=O)(=O)N3CCCC3)cc2)cc1	1.1 µg/mL (≈ 3.47 µM)
Cc1cccc(-n2c(C)nc3ccsc3c2=O)c1	35.8 µg/mL (≈ 140 µM)
Cc1cc(NC(=O)c2ccc(Cl)cc2Cl)n(CCC#N)n1	> 48.5 µg/mL
O=C(C[n+]1ccc2ccccc2c1)c1ccccc1.[Br-]	> 49.2 µg/mL
CC1CCC(NC(=O)Cn2cnc3sccc3c2=O)CC1 (stereo not drawn)	> 45.8 µg/mL

SMILES	solubility kinetic
CC1CCN(CCNC(=S)Nc2ccc(Cl)cc2)CC1	> 46.8 µg/mL
O=C(Nc1cccc(Cl)c1)C1CCN(C(=O)c2cccs2)CC1	48.4 µg/mL (≈ 139 µM)
Cc1onc(-c2ccccc2Cl)c1C(=O)N1CCC(C)CC1	> 47.8 µg/mL
COCCN(Cc1ccccc1)C(=S)Nc1ccc(Cl)cc1	8.6 µg/mL (≈ 25.7 µM)
N#Cc1ccccc1N/C=C/C(=O)c1ccc(Cl)cc1	0.8 µg/mL (≈ 2.83 µM)
N#CCCN(C(=O)CSc1nc2ccccc2c(=O)[nH]1)c1ccc(F)cc1	> 57.4 µg/mL
COC(=O)/C=C1/SC(=NC(=O)c2ccc(OC)cc2)NC1=O	9.2 µg/mL (≈ 28.7 µM)
O=C(NCc1ccccc1)c1cc2ccccc2oc1=O	2.7 µg/mL (≈ 9.67 µM)
COc1cccc(N2C(=O)CC(N3CCc4ccccc4C3)C2=O)c1 (stereo not drawn)	50.4 µg/mL (≈ 150 µM)
c1ccc2c(Cn3ccnc3)cccc2c1	30.2 µg/mL (≈ 145 µM)
CCOc1ccc(S(=O)(=O)N(C)CC(=O)NC2CC2)cc1	> 46.9 µg/mL
O=C1CNC(=S)N1CCCc1ccccc1	> 35.1 µg/mL
NS(=O)(=O)c1cccc(NC(=O)CN2CCCc3ccccc32)c1	> 51.8 µg/mL
O=C(CN1C(=O)c2ccccc2S1(=O)=O)NCc1ccccc1	> 49.6 µg/mL
O=C(O)C1CCN(c2ccc([N+](=O)[O-])cc2[N+](=O)[O-])CC1	> 44.3 µg/mL
Fc1cccc(Cc2noc(CN3CCSCC3)n2)c1	> 44 µg/mL
Cc1ccc(S(=O)(=O)N2CCOCC2)cc1NC(=O)COC(=O)Cc1ccc(Cl)cc1	18.7 µg/mL (≈ 40 µM)
CCN1CCN(C(=O)NC2CC(=O)N(c3ccc(OC)cc3)C2)CC1 (stereo not drawn)	> 52 µg/mL
Cc1ccc(C(=O)COC(=O)c2nc(Cl)ccc2Cl)cc1	48.4 µg/mL (≈ 149 µM)
O=C(O)c1ccc(N=Cc2c(O)ccc3oc4c(c23)CCCC4)cc1	> 50.3 µg/mL
CC(=O)Oc1ccc(N(C(C)=O)S(=O)(=O)c2ccc(C)cc2C)c2ccccc12	4.3 µg/mL (≈ 10.5 µM)
C#CCN1c2ccccc2Sc2cccnc21	4.8 µg/mL (≈ 20.1 µM)
